Laboratory results: ChEMBL document CHEMBL3885881, “DrugMatrix”

Species: Rattus norvegicus
Test: DrugMatrix - Regimen: Daily Repeat
Assay type: toxicity, organism-based, Sprague-Dawley
Design: regimen Daily Repeat, gender Male, age 6-8 weeks
Conditions: in vivo, sc, 1.75 mg/kg, route mini-PUMP - SUBCUTANEOUS, dose level High, vehicle 100 % SALINE; for ABSOLUTE BASOPHIL / ABSOLUTE EOSINOPHIL / ABSOLUTE LYMPHOCYTE / ABSOLUTE MONOCYTE / ABSOLUTE SEGMENTED NEUTROPHIL / BASOPHIL / EOSINOPHIL / ERYTHROCYTE COUNT / HEMATOCRIT / HEMOGLOBIN / LEUKOCYTE COUNT / LYMPHOCYTE / MEAN CORPUSCULAR HEMOGLOBIN / MEAN CORPUSCULAR HEMOGLOBIN CONCENTRATION / MEAN CORPUSCULAR VOLUME / MONOCYTE / NEUTROPHIL / NUCLEATED RED BLOOD CELLS / PLATELET COUNT: tissue Blood; for ALANINE AMINOTRANSFERASE / ALBUMIN / ALKALINE PHOSPHATASE / ASPARTATE AMINOTRANSFERASE / BLOOD UREA NITROGEN / CARBON DIOXIDE / CHLORIDE / CHOLESTEROL / CREATININE / GLUCOSE / LACTATE DEHYDROGENASE / LIPASE / PHOSPHORUS / POTASSIUM / SODIUM / TOTAL BILIRUBIN / TOTAL PROTEIN / URIC ACID: tissue Plasma

In the case of `NC[C@H](O)c1ccc(O)c(O)c1` [NOREPINEPHRINE], the “ABSOLUTE BASOPHIL” value (72 h, time 3 day) is reported as 0 CELLS/uL, the “ABSOLUTE EOSINOPHIL” value (72 h, time 3 day) is reported as 0 CELLS/uL and the “ABSOLUTE LYMPHOCYTE” value (72 h, time 3 day) is reported as 13450.33 CELLS/uL. The “ABSOLUTE MONOCYTE” value (72 h, time 3 day) was 275.33 CELLS/uL, the “ABSOLUTE SEGMENTED NEUTROPHIL” value (72 h, time 3 day) was 1174.33 CELLS/uL and the BASOPHIL (72 h, time 3 day) was 0%. For the same compound, the EOSINOPHIL (72 h, time 3 day) was 0%, the “ERYTHROCYTE COUNT” value (72 h, time 3 day) was 6.14 x10E6/uL and the HEMATOCRIT (72 h, time 3 day) was 36.87%. For the same compound, the HEMOGLOBIN (72 h, time 3 day) was 13.53 G/DL, the “LEUKOCYTE COUNT” value (72 h, time 3 day) was 14.9 x10E3/uL and the LYMPHOCYTE (72 h, time 3 day) was 90.67%. The “MEAN CORPUSCULAR HEMOGLOBIN” value (72 h, time 3 day) was 22.03 pg, the “MEAN CORPUSCULAR HEMOGLOBIN CONCENTRATION” value (72 h, time 3 day) was 36.73 G/DL and the “MEAN CORPUSCULAR VOLUME” value (72 h, time 3 day) was 60 fL. The MONOCYTE (72 h, time 3 day) was 2%, the NEUTROPHIL (72 h, time 3 day) was 7.33% and the “NUCLEATED RED BLOOD CELLS” value (72 h, time 3 day) was 0.33 /100WBC. The “PLATELET COUNT” value (72 h, time 3 day) was 1242.33 x10E3/uL, the “ALANINE AMINOTRANSFERASE” value (72 h, time 3 day) was 42.67 u/L and the ALBUMIN (72 h, time 3 day) was 4.07 G/DL. For the same compound, the “ALKALINE PHOSPHATASE” value (72 h, time 3 day) was 322.67 u/L, the “ASPARTATE AMINOTRANSFERASE” value (72 h, time 3 day) was 89.33 u/L and the “BLOOD UREA NITROGEN” value (72 h, time 3 day) was 16.67 mg/dL. For the same compound, the “CARBON DIOXIDE” value (72 h, time 3 day) was 25 mmol/L, the CHLORIDE (72 h, time 3 day) was 104.33 MEQ/L and the CHOLESTEROL (72 h, time 3 day) was 72.67 mg/dL. The CREATININE (72 h, time 3 day) was 0.21 mg/dL, the GLUCOSE (72 h, time 3 day) was 169 mg/dL and the “LACTATE DEHYDROGENASE” value (72 h, time 3 day) was 701 u/L. The LIPASE (72 h, time 3 day) was 9.67 u/L, the PHOSPHORUS (72 h, time 3 day) was 11.73 mg/dL and the POTASSIUM (72 h, time 3 day) was 6.75 MEQ/L. The SODIUM (72 h, time 3 day) was 150.2 MEQ/L, the “TOTAL BILIRUBIN” value (72 h, time 3 day) was 0.17 mg/dL and the “TOTAL PROTEIN” value (72 h, time 3 day) was 6.3 G/DL. For the same compound, the “URIC ACID” value (72 h, time 3 day) was 1.8 mg/dL, the “ABSOLUTE BASOPHIL” value (120 h, time 5 day) was 0 CELLS/uL and the “ABSOLUTE EOSINOPHIL” value (120 h, time 5 day) was 0 CELLS/uL. The “ABSOLUTE LYMPHOCYTE” value (120 h, time 5 day) was 12875 CELLS/uL, the “ABSOLUTE MONOCYTE” value (120 h, time 5 day) was 478 CELLS/uL and the “ABSOLUTE SEGMENTED NEUTROPHIL” value (120 h, time 5 day) was 2047 CELLS/uL. For the same compound, the BASOPHIL (120 h, time 5 day) was 0%, the EOSINOPHIL (120 h, time 5 day) was 0% and the “ERYTHROCYTE COUNT” value (120 h, time 5 day) was 6.43 x10E6/uL. For the same compound, the HEMATOCRIT (120 h, time 5 day) was 38.73%, the HEMOGLOBIN (120 h, time 5 day) was 14.3 G/DL and the “LEUKOCYTE COUNT” value (120 h, time 5 day) was 15.4 x10E3/uL. For the same compound, the LYMPHOCYTE (120 h, time 5 day) was 84.33%, the “MEAN CORPUSCULAR HEMOGLOBIN” value (120 h, time 5 day) was 22.23 pg and the “MEAN CORPUSCULAR HEMOGLOBIN CONCENTRATION” value (120 h, time 5 day) was 36.93 G/DL. The “MEAN CORPUSCULAR VOLUME” value (120 h, time 5 day) was 60.27 fL, the MONOCYTE (120 h, time 5 day) was 3% and the NEUTROPHIL (120 h, time 5 day) was 12.67%. For the same compound, the “NUCLEATED RED BLOOD CELLS” value (120 h, time 5 day) was 0 /100WBC, the “PLATELET COUNT” value (120 h, time 5 day) was 1321.67 x10E3/uL and the “ALANINE AMINOTRANSFERASE” value (120 h, time 5 day) was 45 u/L. The ALBUMIN (120 h, time 5 day) was 4.47 G/DL, the “ALKALINE PHOSPHATASE” value (120 h, time 5 day) was 289.33 u/L and the “ASPARTATE AMINOTRANSFERASE” value (120 h, time 5 day) was 74.33 u/L. The “BLOOD UREA NITROGEN” value (120 h, time 5 day) was 14.67 mg/dL, the “CARBON DIOXIDE” value (120 h, time 5 day) was 28 mmol/L and the CHLORIDE (120 h, time 5 day) was 103 MEQ/L. It also gave a CHOLESTEROL (120 h, time 5 day) of 70.67 mg/dL, a CREATININE (120 h, time 5 day) of 0.13 mg/dL and a GLUCOSE (120 h, time 5 day) of 203 mg/dL. The “LACTATE DEHYDROGENASE” value (120 h, time 5 day) was 122 u/L, the LIPASE (120 h, time 5 day) was 9.33 u/L and the PHOSPHORUS (120 h, time 5 day) was 12.63 mg/dL. The POTASSIUM (120 h, time 5 day) was 6.59 MEQ/L, the SODIUM (120 h, time 5 day) was 150.5 MEQ/L and the “TOTAL BILIRUBIN” value (120 h, time 5 day) was 0.17 mg/dL. The “TOTAL PROTEIN” value (120 h, time 5 day) was 6.8 G/DL, the “URIC ACID” value (120 h, time 5 day) was 2.17 mg/dL and the “ABSOLUTE BASOPHIL” value ([…], time 14 day) was 0 CELLS/uL. The “ABSOLUTE EOSINOPHIL” value ([…], time 14 day) was 45.6 CELLS/uL, the “ABSOLUTE LYMPHOCYTE” value ([…], time 14 day) was 15398.2 CELLS/uL and the “ABSOLUTE MONOCYTE” value ([…], time 14 day) was 562 CELLS/uL. For the same compound, the “ABSOLUTE SEGMENTED NEUTROPHIL” value ([…], time 14 day) was 3234.2 CELLS/uL, the BASOPHIL ([…], time 14 day) was 0% and the EOSINOPHIL ([…], time 14 day) was 0.2%. The “ERYTHROCYTE COUNT” value ([…], time 14 day) was 6.59 x10E6/uL, the HEMATOCRIT ([…], time 14 day) was 38.5% and the HEMOGLOBIN ([…], time 14 day) was 14.08 G/DL. The “LEUKOCYTE COUNT” value ([…], time 14 day) was 19.24 x10E3/uL, the LYMPHOCYTE ([…], time 14 day) was 80.6% and the “MEAN CORPUSCULAR HEMOGLOBIN” value ([…], time 14 day) was 21.36 pg. The “MEAN CORPUSCULAR HEMOGLOBIN CONCENTRATION” value ([…], time 14 day) was 36.56 G/DL, the “MEAN CORPUSCULAR VOLUME” value ([…], time 14 day) was 58.42 fL and the MONOCYTE ([…], time 14 day) was 3%. For the same compound, the NEUTROPHIL ([…], time 14 day) was 16.2%, the “NUCLEATED RED BLOOD CELLS” value ([…], time 14 day) was 0 /100WBC and the “PLATELET COUNT” value ([…], time 14 day) was 980.2 x10E3/uL. The “ALANINE AMINOTRANSFERASE” value ([…], time 14 day) was 57.6 u/L, the ALBUMIN ([…], time 14 day) was 4.18 G/DL and the “ALKALINE PHOSPHATASE” value ([…], time 14 day) was 349 u/L. For the same compound, the “ASPARTATE AMINOTRANSFERASE” value ([…], time 14 day) was 86 u/L, the “BLOOD UREA NITROGEN” value ([…], time 14 day) was 15.8 mg/dL and the “CARBON DIOXIDE” value ([…], time 14 day) was 30 mmol/L. For the same compound, the CHLORIDE ([…], time 14 day) was 102.6 MEQ/L, the CHOLESTEROL ([…], time 14 day) was 72.4 mg/dL and the CREATININE ([…], time 14 day) was 0.22 mg/dL. For the same compound, the GLUCOSE ([…], time 14 day) was 187.4 mg/dL, the “LACTATE DEHYDROGENASE” value ([…], time 14 day) was 105.4 u/L and the LIPASE ([…], time 14 day) was 8.8 u/L. The PHOSPHORUS ([…], time 14 day) was 13.42 mg/dL, the POTASSIUM ([…], time 14 day) was 7.42 MEQ/L and the SODIUM ([…], time 14 day) was 147.96 MEQ/L. For the same compound, the “TOTAL BILIRUBIN” value ([…], time 14 day) was 0.16 mg/dL, the “TOTAL PROTEIN” value ([…], time 14 day) was 6.34 G/DL and the “URIC ACID” value ([…], time 14 day) was 2.42 mg/dL.
